Assay results as given in US4478763A, “Process for preparing alpha-fluorinated alkanediphosphonates” (Univ. of Southern California, priority 1982, dated 1984).
“Also recorded” adds a separate entry of the source. Where two headings read alike, the source gives them in different places.

Key:
[1] = cited from earlier work
[2] = Acidity comparison among methanediphosphonic acids; type: physicochemical; details: for acidity compared with other methanediphosphonic acids (in words): qualitative comparison
Experimental: (§1) The effect of fluorine substitution on the acidity of methanediphosphonic acid is of interest. Using the empirical equations developed by R. G. Grabenstetter et al. J. Phys. Chem. 71, 4194 (1967), estimated pK° values for mono and difluoro methanediphosphonic acid were calculated and compared with experimental pK° data for the parent acid. It should be noted that the cited work set forth two alternative Taft equations for pK°4 on giving an optimal fit with bulkier substitution (e.g., CH3) and one to fit data for less sterically hindering substituents (e.g., H).

[3] = Estimation of pK° values of mono and difluoro methanediphosphonic acid from 31P chemical shift data; type: physicochemical; details: calculated from 31P chemical shift data
Experimental: as §1

bone resorption = experiment: Inhibition of bone resorption; details: compared with known drugs; no test data given
[4] = experimental pK° data, parent acid
[5] = dichloro methanediphosphonic acid

Question: Which results are given for O=P(O)(O)CP(=O)(O)O [MDPA, methanediphosphonic acid]?
Answer: pK° 2 [1, 4]: 3.1; pK°3 [1, 4]: 7.4; pK° 4 [1, 4]: 11.0

Question: For O=P(O)(O)C(Cl)(Cl)P(=O)(O)O [dichloro methanediphosphonic acid], which “acidity compared with other methanediphosphonic acids (in words)” value [2] is on record?
Answer: The value was “weaker than the difluoro substituted acid”.

Question: And the “pK°3” value [1, 5]?
Answer: The value was 6.1.

Question: What about the “pK° 4” value [1, 5] of the same compound?
Answer: Its value is 9.8.

Question: Which pKa ([3]; read-out: pK° 2) does the source give for O=P(O)(O)C(F)(F)P(=O)(O)O [difluoro MDPA, Difluoro Methanediphosphonic Acid] here?
Answer: Its pKa is 2.57.

Question: And the pKa ([3]; read-out: pK° 3)?
Answer: Its pKa is 6.08.

Question: What about the pKa ([3]; read-out: pK° 4) of the same compound?
Answer: Its pKa is 9.07.

Question: What about the “acidity of the fourth proton relative to unfluorinated parent acid” value ([2]; more acidic than the unfluorinated parent acid, calculated) of the same compound?
Answer: Its value is 100 fold.

Question: And the “acidity compared with other methanediphosphonic acids (in words)” value [2]?
Answer: Its value is “strongest of the halomethanediphosphonic acids”.

Question: What about the “inhibition of bone resorption” value (bone resorption) of the same compound?
Answer: Its value is “inhibits bone resorption at least as effectively as known drugs”.

Question: What does the source list for O=P(O)(O)C(F)P(=O)(O)O [monofluoro MDPA, Fluoro Methanediphosphonic Acid]?
Answer: pK° 4 ([3]; listed as monofluoro acid): approximately 10.1; pKa ([3]; read-out: pK° 2): 2.78; pKa ([3]; read-out: pK° 3): 6.62; pKa ([3]; read-out: pK° 4): 10.1; acidity compared with other methanediphosphonic acids (in words) ([2]; listed as monofluoro acid): one order of magnitude below that of the parent acid; also recorded: comparable to that of dichloro methanediphosphonic acid
